{
  "source": "patent US12655107B2",
  "about": "(The United States of America, as represented by the …, priority 2018, dated 2026)",
  "key": {"[1]": {"test_system": "HCT116 cells", "test": "Flow cytometry apoptosis assay", "format": "cell-based, human", "method": "To evaluate the induction of apoptosis by 50, flow cytometry assays were performed in HCT116 cells.\nThe stained cells were analyzed by using flow cytometry (BD, FACSCalibur, USA) within I h. The experiments were repeated three times independently."}, "[2]": {"test_system": "MCF-7 xenograft", "test": "In vivo antitumor activity, MCF-7 xenograft", "design": "species or system nude mice; tumor weight inhibitions (TWI): dose or concentration left out as unconfirmed"}, "[3]": {"test_system": "γH2AX foci in HCT116 cells", "test": "γH2AX detection by immunofluorescence", "format": "cell-based, human", "conditions": "HCT116, 1 μM, 3 h", "method": "To evaluate the DNA damaging effect of 50 in cancer cells, γH2AX foci were assessed by immunofluorescence microscopy in human […] HCT116 cells. After incubation with the compounds for 3 h, the HCT116 cells were stained with γH2AX antibodies.\nHCT116 cells (2×10^4 cells/mL) were grown in culture medium and treated with compounds for 3 h at 37° C. […] Cells were permeabilized with 0.5% Triton X-100 in PBS at 0° C. for 30 min. Dish was blocked with 5% goat serum/PBS at 37° C. for 3 h. […] The dishes were again washed six times with blocking buffer. Digital images were recorded using an LSM710 microscope (Zeiss, Germany) and analyzed with ZEN software."}, "[4]": {"target": "T1, Top1-DNA covalent cleavage complexes in HCT116 cells (Homo sapiens, UniProt P11387)", "T1 construct": "endogenous in cells; host or cells: HCT116 (human colon cancer)", "T1 sequence (P11387 2-765 limits assumed, one chain of several)": "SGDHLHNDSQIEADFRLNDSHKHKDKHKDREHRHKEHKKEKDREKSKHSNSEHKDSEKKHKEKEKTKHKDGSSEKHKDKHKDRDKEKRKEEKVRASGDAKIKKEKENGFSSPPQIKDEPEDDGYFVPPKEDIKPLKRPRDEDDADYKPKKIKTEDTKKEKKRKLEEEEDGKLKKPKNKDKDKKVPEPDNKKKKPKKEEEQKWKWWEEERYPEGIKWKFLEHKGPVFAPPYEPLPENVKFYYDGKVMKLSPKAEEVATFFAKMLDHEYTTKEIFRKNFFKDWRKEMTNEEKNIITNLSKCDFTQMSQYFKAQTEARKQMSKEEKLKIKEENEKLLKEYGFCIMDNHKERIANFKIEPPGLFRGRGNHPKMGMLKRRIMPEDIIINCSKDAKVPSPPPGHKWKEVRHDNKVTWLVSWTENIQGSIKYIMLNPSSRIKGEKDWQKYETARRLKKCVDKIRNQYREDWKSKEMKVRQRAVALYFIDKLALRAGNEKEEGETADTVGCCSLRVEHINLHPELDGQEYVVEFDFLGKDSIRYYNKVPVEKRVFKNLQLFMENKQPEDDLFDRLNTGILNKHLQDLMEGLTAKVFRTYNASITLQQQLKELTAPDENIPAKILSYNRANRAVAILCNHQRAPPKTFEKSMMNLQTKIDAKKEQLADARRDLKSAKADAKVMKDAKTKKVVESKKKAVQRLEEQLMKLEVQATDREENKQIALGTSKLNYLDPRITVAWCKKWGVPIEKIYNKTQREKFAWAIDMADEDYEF", "test": "Immunocomplex of enzyme to DNA (ICE) assay", "format": "cell-based", "conditions": "HCT116, 25, 50 and 100 μM"}, "[5]": {"test": "Pharmacokinetic study in rat", "conditions": "SD rats", "method": "The SD rats were divided into two groups (n=3) and treated by intravenous injection (i.v.) at 1 mg/kg dose and intragastrical administration (i.g.) at 5 mg/kg dose, respectively.\nA pharmacokinetic (PK) study in vivo of 50 was performed in Sprague-Dawley (SD) rats. The SD rats were randomly divided into two groups […] and treated by intravenous injection (iv) at 1 mg/kg dose or an intragastrical administration (ig) at 5 mg/kg dose, respectively. Plasma samples were collected postdosing and the concentration of 50 was measured.\nPlasma samples (100 μL) were obtained after centrifugation for 10 min at 3000 rpm and stored at −20° C. until used for analysis. The plasma was detected through LC-MS-MS."}},
  "note": "Where two headings read alike, the source gives them in different places.",
  "data": [
    {"smiles": "CNCCn1c(=O)c2cc(OC)c(OC)cc2c2ccc3cc4c(cc3c21)OCO4", "note": "[Compound 50, 2,3-dimethoxy-12-(2-(methylamino)ethyl)-[1,3]dioxolo[4′5′:4,5]benzo[1,2-c]phenanthridin-13(12H)-one]", "values": [
      {"measurement": "early apoptotic cells", "setting": "[1]; HCT116, 24 h, 2 μM", "value": 27.95, "unit": "%"},
      {"measurement": "induction of apoptosis", "setting": "[1]; HCT116, 24 h, 0.5, 1 and 2 μM", "value": "clearly induced HCT116 cells apoptosis in a dose-dependent manner"},
      {"measurement": "median lethal dose (LD50)", "setting": "i.p., dose to kill half of mice after 7 days", "value": 192, "unit": "mg/kg"},
      {"measurement": "mouse survival", "setting": "mouse, in vivo, ip, 192 mg/kg", "value": "three mice survived"},
      {"measurement": "mouse survival", "setting": "single i.p. dose 122.9 mg/kg, 7 days", "value": "all mice survived"},
      {"measurement": "mouse survival", "setting": "single i.p. dose 153.6 mg/kg, 7 days", "value": "four mice survived"},
      {"measurement": "mouse survival", "setting": "single i.p. dose 240 mg/kg, 7 days", "value": "two mice survived"},
      {"measurement": "mouse survival", "setting": "single i.p. dose 300 mg/kg, 7 days", "value": "All mice died within 5 days"},
      {"measurement": "tumor weight inhibitions (TWI)", "setting": "[2]; MCF-7 model, ip daily", "value": 71.8, "unit": "%"},
      {"measurement": "tumor volume", "setting": "[2]; MCF-7 xenograft, 5, 10, 20 mg/kg ip daily", "value": "significantly reduced the tumor volume in a dose-dependent manner"},
      {"measurement": "γH2AX foci", "setting": "[3]", "value": "effectively induced γH2AX foci"},
      {"measurement": "induction of cellular Top1cc", "setting": "[4]", "value": "induced the formation of cellular TOP1 cc in a dose-dependent manner"},
      {"measurement": "AUC0→t", "setting": "[5]; i.g. 5 mg/kg", "value": "48.3 ± 28", "unit": "ng·h/mL"},
      {"measurement": "Cmax", "setting": "[5]; i.g. 5 mg/kg", "value": "19 ± 9", "unit": "ng/mL"},
      {"measurement": "Tmax", "setting": "[5]; i.g. 5 mg/kg", "value": "2 ± 0", "unit": "h"},
      {"measurement": "F (%)", "setting": "[5]; i.g. 5 mg/kg vs i.v. 1 mg/kg", "value": 20.4, "unit": "%"},
      {"measurement": "AUC0→t", "setting": "[5]; i.v. 1 mg/kg", "value": "47.2 ± 1.8", "unit": "ng·h/mL"},
      {"measurement": "AUC0→∞", "setting": "[5]; i.v. 1 mg/kg", "value": "49.8 ± 1.5", "unit": "ng·h/mL"},
      {"measurement": "MRTINF", "setting": "[5]; i.v. 1 mg/kg", "value": "1.46 ± 0.027", "unit": "h"},
      {"measurement": "T1/2", "setting": "[5]; i.v. 1 mg/kg", "value": 1.21, "unit": "h"}
    ]}
  ]
}
